Results taken from patent US6992064B2, “N-alkylglycine trimeres capable of protecting neurons against excitotoxic aggressions and compositions containing such trimeres” (Diverdrugs, S.L., priority 2000, dated 2006).

Assays:
[1] = tested on: primary cultures of rat cerebellum neurones; assay: Neuroprotection of primary cultures of rat cerebellar neurones against excitotoxic aggression (L-glutamate/glycine); type: cell-based; details: for neuroprotector activity (enantiomers versus racemic mixture): primary cultures of cerebellar neurons, L-glutamate 1 mM; for decrease of neuronal death: rat cerebellar neurones, 10 μM glycine, prolonged (≧3 h) L-glutamate, read 24 hours post-aggression
Description: The neuroprotector mechanism implies, at least in part, the blocking of the glutamate ionotropic receptors, as is made manifest by the inhibition of the ionic current activated by the NMDA type of glutamatergic receptor agonist expressed in X. laevis ovocites (19,20). An important advantage of these biological tests is that they permit the search for neuroprotectors in functionally active systems, increasing the potentiality of its in vivo use.
Two complementary biological tests were used in order to evaluate the biological activity of the N-alkylglycine trimeres obtained in Example 1.1. The first evaluates the efficiency and power with which said compounds block the ionic current activated by agonists in X. laevis ovocites that express the NMDA receptor. The second, determines the neuroprotector efficiency of the N-alklyglycine trimeres in primary cultures of neurones subjected to an excitotoxic aggression, such as prolonged exposure to L-glutamate and glycine.
It was also observed that the N-alkylglycine trimeres tested protected primary neuronal cultures coming from the cerebellum of rats pre-exposed to 10 μM glycine versus the prolonged exposure (≧3 h) of L-glutamate or N-methyl-D-aspartate at a concentration of […]. The test consists of extracting the cerebellar neurones of baby rats, 7–8 days old, cultivating them in plates in a culture medium supplemented with bovine foetal serum (22). After 13–19 days under culture, the excitotoxic aggression with L-glutamate is performed, monitoring the neuronal death in the absence and presence of the N-alkylglycine trimeres 24 hours post-aggression using two fluorescent dyes: the fluorescent diacetate that indicates the number of viable cells, and the propydium iodine that informs of the number of dead cells (23). As an example, the N-alkylglycine trimere identified as compound [1] decreased a 95% of the neuronal death at a concentration of 30 μg/ml; compound [5] an 85% at 30 μg/ml; compound [23a] a 57% at a concentration of 50 μg/ml, and compound [24] a 60% at 50 μg/ml.
On the other hand, due to the fact that some formula I N-alkylglycine trimeres may be presented as stereoisomers, the possibility that the neuroprotector activity of the racemic mixture preferably corresponded to one of the isomers, was evaluated. For this, the neuroprotector activity of the enantiomers identified as [23b] and [23c] was evaluated, (see Table 1) in primary cultures of cerebellar neurons exposed to excitotoxic aggression, such as the incubation with L-glutamate 1 mM comparing it with the neuroprotector activity of a racemic mixture of said enantiomers. […] Likewise, said power was similar to the one presented by the racemic mixture.

[2] = tested on: ammonium-induced neurotoxicity in mice; assay: Neurotoxicity model in mice induced by injection of high doses of ammonium (death due to NMDA receptor hyperactivation); type: in vivo; details: 0.05–0.1 mg/g intraperitoneal, 10 minutes before 12 mmol/kg ammonium acetate; 24 hours post-injection
Description: A neurotoxicity model was used on mice induced by the injection of high doses of ammonium, the result of which is the death of the animal due to the hyperactivation of the NMDA receptor. The test consists in the intraperitoneal injection in mice of an amount of N-alkylglycine trimere of 0.05–0.1 mg/g, followed, after 10 minutes, with an injection of 12 mmol/kg of ammonium acetate. After 24 hours post-injection, the number of dead mice was determined. The N-alkylglycine trimere identified as compound [24] protected 82% of the mice, whilst the N-alkylglycine trimere identified as compound [23a] protected 100% of the animals.

| Compound | neuroprotector activity (enantiomers versus racemic mixture) [1] | decrease of neuronal death ([1]; 30 μg/ml) | further results |
| --- | --- | --- | --- |
| CC[C@H](C)NC(=O)CN(C(=O)CNCCN1CCCC1)C(=O)CNC1CC1 [[23c], [N-[2-(N-pyrrolidinyl)ethyl]glycyl]-[N-(cyclopropyl)glycyl]-N-((S)-sec-butyl)glycinamide] | neuroprotectors with equal power | – | – |
| CCN(CC)CCCN(CC(=O)N(CCNC(C)=O)CC(N)=O)C(=O)CNCCC(c1ccccc1)c1ccccc1 [compound [5]] [[N-[3,3-diphenylpropyl]glycyl]-[N-[3-N,N-diethylamine)propyl]glycyl]-N-[2-(methylcarbonylamine)ethyl]glycinamide] | – | 85% | – |
| CCC(C)N(CC(N)=O)C(=O)CN(C(=O)CNCCN1CCCC1)C1CC1 (racemic) [compound [23a], [N-[2-(N-pyrrolidinyl)ethyl]glycyl]-[N-(cyclopropyl)glycyl]-N-((R,S)-sec-butyl)glycinamide] | – | – | decrease of neuronal death ([1]; 50 μg/ml): 57%; mice protected from death [2]: 100% |
| CCN(CC)CCCN(CC(=O)N(CCNC(C)=O)CC(N)=O)C(=O)CNCCC(c1ccccc1)c1ccccc1 [compound [1]] [[N-[3,3-diphenylpropyl]glycyl]-[N-[3-(N,N-diethylamine)propyl]glycyl]-N-[2-(methylcarbonylamine)ethyl]glycinamide] | – | 95% | – |
| CC[C@@H](C)NC(=O)CN(C(=O)CNCCN1CCCC1)C(=O)CNC1CC1 [[23b], [N-[2-(N-pyrrolidinyl)ethyl]glycyl]-[N-(cyclopropyl)glycyl]-N-((R)-sec-butyl)glycinamide] | neuroprotectors with equal power | – | – |
